Measurements from patent US6716814B2, “Enhancing solubility of iron amino acid chelates and iron proteinates” (Albion International, Inc., priority 2001, dated 2004).

Key:
[1] = Visual inspection of hydrated iron proteinate with or without added compound (Example 4); assay type: physicochemical; settings: compound added to iron proteinate solution, compound to iron content about 1:1 by weight
Experimental: (§1) A small amount of the solution was placed on filter paper with a pipette. […] Next, several different organic acids and sugars were added to various samples of the solution. Each was inspected both visually and by placing a small amount of solution on filter paper with a pipette.

[2] = pH of hydrated iron proteinate with or without added compound (Example 4); assay type: physicochemical; settings: compound added to iron proteinate solution, compound to iron content about 1:1 by weight
Experimental: as §1

[3] = Filter paper ring characterization of hydrated iron proteinate (Example 4); assay type: physicochemical; settings: compound added to iron proteinate solution, about 1:1 by weight to iron
Experimental: An iron proteinate or iron protein hydrolysate which was hydrolyzed from a vegetable protein was formed having an iron content of about 10%. […] A small amount of the solution was placed on filter paper with a pipette. […] Next, several different organic acids and sugars were added to various samples of the solution. Each was inspected both visually and by placing a small amount of solution on filter paper with a pipette. […] This is evidenced by darker rings remaining on the filter paper which corresponded to location of the waterfront.

[4] = Visual inspection of aqueous iron bisglycinate with added compound (Example 3); assay type: physicochemical; settings: compound added to aqueous iron bisglycinate, compound to iron content about 1.8:1 by weight
[5] = Filter paper ring characterization of aqueous iron bisglycinate (Example 3); assay type: physicochemical; settings: for RING APPEARANCE: compound added to aqueous iron bisglycinate, about 1.8:1 by weight to iron, filter paper after drying
[6] = Filter paper test of hydrated samples (Example 1, Phase 1); assay type: physicochemical; settings: hydrated with water sufficient to dissolve, after 4 hours, solution placed on filter paper with pipette
Experimental: After hydrating Sample 1 and Sample 2 with an amount of water sufficient to dissolve the respective powders and allowing 4 hours to pass, a small amount of each solution was placed on filter paper with a pipette. By placing the two solutions on paper in this manner, the respective solutions were allowed to disperse away from the point of application while leaving behind any solids that may have formed.

[7] = Visual examination of solutions retained in test tubes (Example 1, Phase 2); settings: solution retained in test tube 20 additional hours (after first 4 hours)

Compound | VISUAL [1] | pH [2] | RING APPEARANCE [3] | VISUAL [4] | RING APPEARANCE [5] | mobility and solubility on the filter paper ([5]; added to separate samples of iron bisglycinate, versus control) | solids left behind on filter paper [6] | portion precipitated from solution (visual examination) [7]
CC(=O)O [Acetic Acid] | no change | 3.0 | dark brown waterfront ring | – | – | – | – | –
CC(O)C(=O)O (centres unmarked) [Lactic Acid] | no change | 1.0 | dark brown waterfront ring | no precipitation | dark waterfront ring | – | – | –
NCC(=O)[O-].NCC(=O)[O-].[Fe+2] [Sample 1, ferrous bisglycinate] | – | – | – | – | – | – | small clump of precipitate | approximately 50%
O=C(O)CCC(=O)O [Succinic Acid] | no change | 2.0 | dark brown waterfront ring | – | – | – | – | –

Second part, led by results:

VISUAL [1] | pH [2] | RING APPEARANCE [3] | VISUAL [4] | RING APPEARANCE [5] | mobility and solubility on the filter paper ([5]; added to separate samples of iron bisglycinate, versus control) | Compound | solids left behind on filter paper [6] | portion precipitated from solution (visual examination) [7]
no change | 4.5 | dark brown waterfront ring | no precipitation | dark waterfront ring | – | O=C1O[C@H]([C@@H](O)CO)C(O)=C1O [Ascorbic Acid] | – | –
no change | 1.5 | dark brown waterfront ring | – | – | – | O=C(O)CC(O)(CC(=O)O)C(=O)O [Citric Acid] | – | –
no change | 2.0 | dark brown waterfront ring | no precipitation | dark waterfront ring | enhancement of mobility and solubility | O=C(O)CC(O)C(=O)O (centres unmarked) [Malic Acid] | – | –
no change | 7.0 | brown staggered rings | precipitated solids | light staggered ring | – | OC[C@H]1O[C@@](CO)(O[C@H]2O[C@H](CO)[C@@H](O)[C@H](O)[C@H]2O)[C@@H](O)[C@@H]1O [Sucrose] | – | –
